This is an account of results in US7799758B2, “Peptides and peptide derivatives as well as pharmaceutical compositions containing the same” (priority 2006, dated 2010).

No end group written: not given here.

For this test, the system named is mouse-adapted Dengue virus (DEN-2, strain P23085). In words: model of Dengue virus infection in mice. It is filed as in vivo. The conditions noted are these: BALB/c mice infected s.c. with DEN-2 at 1-2 LD50, 4.8 mg/kg/day i.m. once a day for 5 days from day 3, read at day 10, p < 0.05. As to the method:
A further possibility for establishing the biological effect in vivo is the reduction or complete suppression of mortality because of an infection with haemolytic viruses or bacteria. For this purpose, mice are, as described in Example 8, for instance infected with a dose of Dengue viruses, wherein 50% of the animals die within a period of 5-20 days after infection. The inventive compounds bring about a reduction of this mortality at a dose ranging from 0.001 to 500 mg/kg body weight, preferably at a dose ranging from […] body weight.
The biological effect of the compound of Example 3 was established in a model of Dengue virus infection in mice. 5-week-old male BALB/c mice were divided into 2 groups. All animals were infected subcutaneously with a mouse-adapted Dengue virus (DEN-2, strain P23085 at a dose of 1-2 LD50. 15 mice received 0.1 ml of 0.8% saline as intramuscular injection (control). The treated animals received 4.8 mg/kg/day of the agent of Example 3 as an intramuscular injection (diluted in 0.1 ml of 0.8% saline) once a day for 5 days, starting on day 3 after the virus infection.
At the end of the treatment period (day 10) the survival rates were compared.

With “Gly-His-Arg-Pro-Leu-Asp-Lys-Lys-Arg-Glu-Glu-Ala-Pro-Ser-Leu-Arg-Pro-Ala-Pro-Pro-Pro-Ile-Ser-Gly-Gly-Gly-Tyr-Arg-Cys-(S-succinimido-PEG20K)-amide (GHRPLDKKREEAPSLRPAPPPISGGGYRC(succinimido‑PEG20K)-NH2) [Example 3]”, the “Mortality Percentage” value is reported as 0%. In addition, the Mortality (dead/total animals) is reported as 0/10.
